Data from PubChem BioAssay AID248 (DTP/NCI, 2004).
Toxic doses and inconclusive results are not listed.

Test system: L1210 leukemia ip in BDF1 mice, survival T/C
Assay: NCI In Vivo Anticancer Drug Screen. Data for tumor model L1210 Leukemia (intraperitoneal) in B6D2F1 (BDF1) mice
Details: endpoint: mean survival time, higher = longer survival
In short: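 Tumor was transplanted into mice, which were then dosed with test compound or vehicle alone. Survival was recorded for each group, and the treated figure was expressed relative to the control figure.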

[1] = dose: 100.0 mg/kg/injection, schedule: Q04DX003 (ip), vehicle: Klucel (hydroxypropylcellulose) (HPC)
[2] = dose: 200.0 mg/kg/injection, schedule: Q04DX003 (ip), vehicle: Klucel (hydroxypropylcellulose) (HPC)
[3] = dose: 400.0 mg/kg/injection, schedule: Q04DX003 (ip), vehicle: Klucel (hydroxypropylcellulose) (HPC)
[4] = dose: 100.0 mg/kg/injection, schedule: Q01DX009 (ip), vehicle: Klucel (hydroxypropylcellulose) (HPC)
[5] = dose: 200.0 mg/kg/injection, schedule: Q01DX009 (ip), vehicle: Klucel (hydroxypropylcellulose) (HPC)
[6] = dose: 400.0 mg/kg/injection, schedule: Q01DX009 (ip), vehicle: Klucel (hydroxypropylcellulose) (HPC)
[7] = dose: 100.0 mg/kg/injection, schedule: Q04DX002 (ip), vehicle: Klucel (hydroxypropylcellulose) (HPC)
[8] = dose: 200.0 mg/kg/injection, schedule: Q04DX002 (ip), vehicle: Klucel (hydroxypropylcellulose) (HPC)
[9] = dose: 400.0 mg/kg/injection, schedule: Q04DX002 (ip), vehicle: Klucel (hydroxypropylcellulose) (HPC)
[10] = dose: 75.0 mg/kg/injection, schedule: Q01DX001 (ip), vehicle: saline
[11] = dose: 100.0 mg/kg/injection, schedule: Q04DX002 (ip), vehicle: saline
[12] = dose: 200.0 mg/kg/injection, schedule: Q04DX002 (ip), vehicle: saline
[13] = dose: 400.0 mg/kg/injection, schedule: Q04DX002 (ip), vehicle: saline

ClCC[N-]CC[N-]CCCl.ClCC[N-]CC[N-]CCCl.[O-][Cl+3]([O-])([O-])O.[Zn+2]
T/C (dose: 5.0 mg/kg/injection, schedule: Q01DX009 (ip), vehicle: Klucel (hydroxypropylcellulose) (HPC)): 102 % of control | T/C (dose: 5.0 mg/kg/injection, schedule: Q03DX003 (ip), vehicle: saline): 95 % of control | T/C (dose: 5.0 mg/kg/injection, schedule: Q## X003 (ip), vehicle: saline): 95 % of control | T/C (dose: 9.0 mg/kg/injection, schedule: Q01DX009 (ip), vehicle: Klucel (hydroxypropylcellulose) (HPC)): 94 % of control | T/C (dose: 10.0 mg/kg/injection, schedule: Q01DX009 (ip), vehicle: Klucel (hydroxypropylcellulose) (HPC)): 97 % of control | T/C (dose: 10.0 mg/kg/injection, schedule: Q03DX003 (ip), vehicle: saline): 104 % of control | T/C (dose: 10.0 mg/kg/injection, schedule: Q## X003 (ip), vehicle: saline): 104 % of control | T/C (dose: 18.0 mg/kg/injection, schedule: Q01DX009 (ip), vehicle: Klucel (hydroxypropylcellulose) (HPC)): 100 % of control | T/C (dose: 20.0 mg/kg/injection, schedule: Q01DX009 (ip), vehicle: Klucel (hydroxypropylcellulose) (HPC)): 116 % of control | T/C (dose: 20.0 mg/kg/injection, schedule: Q03DX003 (ip), vehicle: saline): 121 % of control | T/C (dose: 20.0 mg/kg/injection, schedule: Q## X003 (ip), vehicle: saline): 121 % of control | T/C (dose: 40.0 mg/kg/injection, schedule: Q03DX003 (ip), vehicle: saline): 161 % of control | T/C (dose: 40.0 mg/kg/injection, schedule: Q## X003 (ip), vehicle: saline): 161 % of control | T/C (dose: 80.0 mg/kg/injection, schedule: Q03DX003 (ip), vehicle: saline): 80 % of control

c1ccc(SC23CC4CC(CC(C4)C2)C3)nc1
T/C (dose: 100.0 mg/kg/injection, schedule: Q01DX003 (ip), vehicle: Klucel (hydroxypropylcellulose) (HPC)): 100 % of control | T/C [1]: 94 % of control | T/C (dose: 200.0 mg/kg/injection, schedule: Q01DX003 (ip), vehicle: Klucel (hydroxypropylcellulose) (HPC)): 89 % of control | T/C [2]: 91 % of control | T/C (dose: 400.0 mg/kg/injection, schedule: Q01DX003 (ip), vehicle: Klucel (hydroxypropylcellulose) (HPC)): 94 % of control | T/C [3]: 102 % of control

CC(=O)C1=CC(=O)NC(=O)C1C(=O)CC(C)C (stereo not drawn)
T/C (dose: 0.78 mg/kg/injection, schedule: Q01DX009 (ip), vehicle: Klucel (hydroxypropylcellulose) (HPC)): 97 % of control | T/C (dose: 1.56 mg/kg/injection, schedule: Q01DX009 (ip), vehicle: Klucel (hydroxypropylcellulose) (HPC)): 97 % of control | T/C (dose: 3.12 mg/kg/injection, schedule: Q01DX009 (ip), vehicle: Klucel (hydroxypropylcellulose) (HPC)): 93 % of control | T/C (dose: 6.25 mg/kg/injection, schedule: Q01DX009 (ip), vehicle: Klucel (hydroxypropylcellulose) (HPC)): 98 % of control | T/C (dose: 12.5 mg/kg/injection, schedule: Q01DX009 (ip), vehicle: Klucel (hydroxypropylcellulose) (HPC)): 98 % of control | T/C (dose: 12.5 mg/kg/injection, schedule: Q04DX003 (ip), vehicle: Klucel (hydroxypropylcellulose) (HPC)): 98 % of control | T/C (dose: 25.0 mg/kg/injection, schedule: Q04DX003 (ip), vehicle: Klucel (hydroxypropylcellulose) (HPC)): 96 % of control

C=C(C)CSC#N
T/C (dose: 25.0 mg/kg/injection, schedule: Q01DX009 (ip), vehicle: saline with Tween-80): 101 % of control | T/C (dose: 50.0 mg/kg/injection, schedule: Q01DX009 (ip), vehicle: saline with Tween-80): 96 % of control | T/C (dose: 100.0 mg/kg/injection, schedule: Q01DX009 (ip), vehicle: saline with Tween-80): 101 % of control

O=S(c1cc(Br)ccc1O)c1cc(Br)ccc1O
T/C (dose: 100.0 mg/kg/injection, schedule: Q01DX001 (ip), vehicle: carboxymethylcellulose (CMC)): 98 % of control | T/C (dose: 200.0 mg/kg/injection, schedule: Q01DX001 (ip), vehicle: carboxymethylcellulose (CMC)): 93 % of control | T/C (dose: 400.0 mg/kg/injection, schedule: Q01DX001 (ip), vehicle: carboxymethylcellulose (CMC)): 90 % of control

CCOC(=O)c1ccc(O)c(NC(C)=O)c1
T/C [4]: 95 % of control | T/C [1]: 95 % of control | T/C [5]: 94 % of control | T/C [2]: 100 % of control | T/C [6]: 94 % of control | T/C [3]: 91 % of control

CC(=Nc1ccc(Br)cc1)c1c(O)cc(C)oc1=O
T/C [4]: 100 % of control | T/C [5]: 91 % of control | T/C [6]: 117 % of control

CCCCCC(C1=NC(C)(C)CC(C)O1)c1ccccc1 (stereo not drawn)
T/C (dose: 100.0 mg/kg/injection, schedule: Q01DX009 (ip), vehicle: saline): 103 % of control | T/C (dose: 100.0 mg/kg/injection, schedule: Q04DX003 (ip), vehicle: saline sonified): 103 % of control | T/C (dose: 200.0 mg/kg/injection, schedule: Q01DX009 (ip), vehicle: saline): 113 % of control | T/C (dose: 200.0 mg/kg/injection, schedule: Q04DX003 (ip), vehicle: saline sonified): 117 % of control | T/C (dose: 400.0 mg/kg/injection, schedule: Q04DX003 (ip), vehicle: saline sonified): 105 % of control

O=C1/C(=C\c2ccc(OCc3ccccc3)c(OCc3ccccc3)c2)N2CCC1CC2
T/C [7]: 102 % of control | T/C [8]: 115 % of control | T/C [9]: 105 % of control

CNC(=O)NC(C)=C(C#N)C#N
T/C [10]: 94 % of control | T/C (dose: 150.0 mg/kg/injection, schedule: Q01DX001 (ip), vehicle: saline): 111 % of control

C/C=C/P(=O)(c1ccccc1)c1ccccc1
T/C (dose: 50.0 mg/kg/injection, schedule: Q01DX001 (ip), vehicle: saline): 110 % of control | T/C (dose: 100.0 mg/kg/injection, schedule: Q01DX001 (ip), vehicle: saline): 110 % of control | T/C (dose: 200.0 mg/kg/injection, schedule: Q01DX001 (ip), vehicle: saline): 95 % of control | T/C (dose: 400.0 mg/kg/injection, schedule: Q01DX001 (ip), vehicle: saline): 104 % of control

CC/C(=N\N=C(/CC)c1ccccc1)c1ccccc1
T/C (dose: 25.0 mg/kg/injection, schedule: Q01DX009 (ip), vehicle: Klucel (hydroxypropylcellulose) (HPC)): 98 % of control | T/C (dose: 50.0 mg/kg/injection, schedule: Q01DX009 (ip), vehicle: Klucel (hydroxypropylcellulose) (HPC)): 101 % of control | T/C [4]: 98 % of control | T/C [7]: 96 % of control | T/C [8]: 107 % of control | T/C [6]: 86 % of control | T/C [9]: 91 % of control

CC(C)(C)NC(=O)C1C2C=CC(CC2)C1C(=O)NC(C)(C)C (stereo not drawn)
T/C (dose: 100.0 mg/kg/injection, schedule: Q04DX003 (ip), vehicle: saline with Tween-80): 100 % of control | T/C (dose: 200.0 mg/kg/injection, schedule: Q04DX003 (ip), vehicle: saline with Tween-80): 96 % of control | T/C (dose: 400.0 mg/kg/injection, schedule: Q04DX003 (ip), vehicle: saline with Tween-80): 92 % of control

CC1CN(Cc2ccccc2)CC(C)N1 (stereo not drawn)
T/C (dose: 25.0 mg/kg/injection, schedule: Q01DX009 (ip), vehicle: water): 95 % of control | T/C (dose: 50.0 mg/kg/injection, schedule: Q01DX009 (ip), vehicle: water): 95 % of control | T/C (dose: 100.0 mg/kg/injection, schedule: Q01DX009 (ip), vehicle: water): 104 % of control | T/C (dose: 100.0 mg/kg/injection, schedule: Q04DX003 (ip), vehicle: water): 110 % of control | T/C (dose: 200.0 mg/kg/injection, schedule: Q04DX003 (ip), vehicle: water): 115 % of control

C[N+]1(N)CCCCCC1
T/C [11]: 94 % of control | T/C [12]: 113 % of control | T/C [13]: 87 % of control

O=C(CBr)c1cccc2c1Nc1ccccc1S2
T/C [10]: 98 % of control

O=C(Sc1ccc2ccccc2c1CN1CCCCC1)c1ccc([N+](=O)[O-])cc1
T/C (dose: 200.0 mg/kg/injection, schedule: Q01DX Z (ip), vehicle: methylcellulose (MC)): 96 % of control | T/C (dose: 225.0 mg/kg/injection, schedule: Q01DX Z (ip), vehicle: methylcellulose (MC)): 94 % of control | T/C (dose: 450.0 mg/kg/injection, schedule: Q01DX Z (ip), vehicle: methylcellulose (MC)): 89 % of control | T/C (dose: 675.0 mg/kg/injection, schedule: Q01DX Z (ip), vehicle: methylcellulose (MC)): 96 % of control

O=C(Nc1ccc(N(CCCl)CCCl)cc1)c1ccc([N+](=O)[O-])cc1
T/C (dose: 50.0 mg/kg/injection, schedule: Q04DX002 (ip), vehicle: saline): 104 % of control | T/C [11]: 95 % of control | T/C [12]: 117 % of control | T/C [13]: 114 % of control
